In publication PMC8745314, “Novel Tetrazole-Based Antimicrobial Agents Targeting Clinical Bacteria Strains: Exploring the Inhibition of Staphylococcus aureus DNA Topoisomerase IV and Gyrase” (International Journal of Molecular Sciences, 2021):
≈ marks a conversion by molar mass, not a printed value. Like-named read-outs stand apart in the source and are kept apart here.

Columns and labels:
[1] = system: P. aeruginosa 659; assay: MIC broth microdilution, clinical isolate; assay type: cell-based; settings: Pseudomonas aeruginosa; P. aeruginosa 659, clinical isolate, 19 h at 35 °C; read-out: minimal inhibitory concentration (MIC)
Experimental: (§1) In the next stage of the experiment, 8 of 11 compounds were selected for a clinical strain activity evaluation against S. aureus, S. epidermidis, E. coli, K. pneumoniae, and P. aeruginosa.
(§2) The antimicrobial assays were conducted using reference strains of bacteria derived from international microbe collections: American Type Culture Collection (ATCC) and National Collection of Type Culture (NCTC). The following standard strains of bacteria were used: Gram-positive—Staphylococcus aureus NCTC 4163, Staphylococcus aureus ATCC 25923, Staphylococcus aureus ATCC 6538, Staphylococcus aureus ATCC 29213, Staphylococcus epidermidis ATCC 12228, Staphylococcus epidermidis ATCC 35984, Gram-negative: Escherichia coli ATCC 25922, Pseudomonas aeruginosa ATCC 15442. Clinical strains of bacteria used in this study: Gram-positive: Staphylococcus epidermidis 5253, Staphylococcus epidermidis 4243, Staphylococcus aureus T5592, Staphylococcus aureus T5591 and Gram-negative: Escherichia coli 520, Escherichia coli 600, Klebsiella pneumoniae 510 and Pseudomonas aeruginosa 659 were obtained from the collection of the Department of Pharmaceutical Microbiology, Medical University of Warsaw, Poland and they were isolated from different biological materials taken from the patients hospitalized in the Warsaw Medical University hospitals. […] MIC was determined by the two-fold serial broth microdilution method in 96-well microtitration plates using Mueller–Hinton II broth medium (Becton Dickinson, Franklin Lakes, NJ, USA). The final inoculum of all studied bacteria was 10^6 CFU/mL (colony forming unit per milliliter). The stock solution of tested compounds was prepared in dimethyl sulfoxide (DMSO) and diluted to a maximum of 1% of solvent content with a sterile medium.

[2] = system: S. aureus T5591; assay: MIC broth microdilution, clinical isolate; assay type: cell-based; settings: Staphylococcus aureus, 19 h at 35 °C, read-out: minimal inhibitory concentration (MIC)
Experimental: as §1, §2

[3] = system: S. epidermidis 4243; assay: MIC broth microdilution, clinical isolate; assay type: cell-based; settings: Staphylococcus epidermidis; S. epidermidis 4243, clinical isolate, 19 h at 35 °C; read-out: minimal inhibitory concentration (MIC)
Experimental: as §1, §2

[4] = system: S. aureus T5592; assay: MIC broth microdilution, clinical isolate; assay type: cell-based; settings: Staphylococcus aureus, 19 h at 35 °C, read-out: minimal inhibitory concentration (MIC)
Experimental: as §1, §2

[5] = system: E. coli 600; assay: MIC broth microdilution, clinical isolate; assay type: cell-based; settings: Escherichia coli; E. coli 600, clinical isolate, 19 h at 35 °C; read-out: minimal inhibitory concentration (MIC)
Experimental: as §1, §2

[6] = system: K. pneumoniae 510; assay: MIC broth microdilution, clinical isolate; assay type: cell-based; settings: Klebsiella pneumoniae; K. pneumoniae 510, clinical isolate, 19 h at 35 °C; read-out: minimal inhibitory concentration (MIC)
Experimental: as §1, §2

[7] = system: S. epidermidis 5253; assay: MIC broth microdilution, clinical isolate; assay type: cell-based; settings: Staphylococcus epidermidis; S. epidermidis 5253, clinical isolate, 19 h at 35 °C; read-out: minimal inhibitory concentration (MIC)
Experimental: as §1, §2

[8] = system: E. coli 520; assay: MIC broth microdilution, clinical isolate; assay type: cell-based; settings: Escherichia coli; E. coli 520, clinical isolate, 19 h at 35 °C; read-out: minimal inhibitory concentration (MIC)
Experimental: as §1, §2

[9] = system: clinical strains (S. aureus, S. epidermidis, E. coli, K. pneumoniae, P. aeruginosa); assay: MIC ranges over the panel of clinical strains; assay type: cell-based
Experimental: In the next stage of the experiment, 8 of 11 compounds were selected for a clinical strain activity evaluation against S. aureus, S. epidermidis, E. coli, K. pneumoniae, and P. aeruginosa. […] Additionally, all three inhibited the growth of all clinical Staphylococci panels: S. aureus (T5592; T5591) and S. epidermidis (5253; 4243) with MIC values of 0.8 μg/mL.
The antimicrobial assays were conducted using reference strains of bacteria derived from international microbe collections: American Type Culture Collection (ATCC) and National Collection of Type Culture (NCTC). The following standard strains of bacteria were used: Gram-positive—Staphylococcus aureus NCTC 4163, Staphylococcus aureus ATCC 25923, Staphylococcus aureus ATCC 6538, Staphylococcus aureus ATCC 29213, Staphylococcus epidermidis ATCC 12228, Staphylococcus epidermidis ATCC 35984, Gram-negative: Escherichia coli ATCC 25922, Pseudomonas aeruginosa ATCC 15442. Clinical strains of bacteria used in this study: Gram-positive: Staphylococcus epidermidis 5253, Staphylococcus epidermidis 4243, Staphylococcus aureus T5592, Staphylococcus aureus T5591 and Gram-negative: Escherichia coli 520, Escherichia coli 600, Klebsiella pneumoniae 510 and Pseudomonas aeruginosa 659 were obtained from the collection of the Department of Pharmaceutical Microbiology, Medical University of Warsaw, Poland and they were isolated from different biological materials taken from the patients hospitalized in the Warsaw Medical University hospitals. Antimicrobial activity was examined by the minimal inhibitory concentration (MIC) method under standard procedures provided by CLSI with some modifications. MIC was determined by the two-fold serial broth microdilution method in 96-well microtitration plates using Mueller–Hinton II broth medium (Becton Dickinson, Franklin Lakes, NJ, USA). The final inoculum of all studied bacteria was 10^6 CFU/mL (colony forming unit per milliliter). The stock solution of tested compounds was prepared in dimethyl sulfoxide (DMSO) and diluted to a maximum of 1% of solvent content with a sterile medium.

[10] = molecular target: S. aureus topoisomerase IV (Staphylococcus aureus, UniProt P0C1S7+P0C1U9); assay: Topoisomerase IV decatenation assay; assay type: biochemical; settings: decatenation of kinetoplast DNA, read-out: IC50 ± S.E.M. for Topoisomerase IV (converted)
Experimental: Description related to conducted biological studies including cell culture, suitable conditions, and methodology was presented in our previous paper.
Figure 1 The effect of tested compounds on S. aureus topoisomerase IV activity. Decreasing amounts of 1, 2, or 3 were incubated with 200 ng kinetoplast DNA and run-on agarose gel. Lane: 1–5: compound 3 at concentrations 64, 32, 8, 2, 0.5 μg/mL, respectively. Lane: 6–10: compound 2 at concentrations 64, 32, 8, 2, 0.5 μg/mL, respectively. Lane: 11–15: compound 1 at concentrations 64, 32, 8, 2, 0.5 μg/mL, respectively.

[11] = 19 h, against Gram-positive clinical strains, read-out: MIC values, range
[12] = 19 h, clinical (hospital) strains, read-out: MIC values, range
[13] = all clinical Staphylococci panels: S. aureus (T5592; T5591) and S. epidermidis (5253; 4243), read-out: MIC values

Chain of S. aureus topoisomerase IV (P0C1S7 whole entry): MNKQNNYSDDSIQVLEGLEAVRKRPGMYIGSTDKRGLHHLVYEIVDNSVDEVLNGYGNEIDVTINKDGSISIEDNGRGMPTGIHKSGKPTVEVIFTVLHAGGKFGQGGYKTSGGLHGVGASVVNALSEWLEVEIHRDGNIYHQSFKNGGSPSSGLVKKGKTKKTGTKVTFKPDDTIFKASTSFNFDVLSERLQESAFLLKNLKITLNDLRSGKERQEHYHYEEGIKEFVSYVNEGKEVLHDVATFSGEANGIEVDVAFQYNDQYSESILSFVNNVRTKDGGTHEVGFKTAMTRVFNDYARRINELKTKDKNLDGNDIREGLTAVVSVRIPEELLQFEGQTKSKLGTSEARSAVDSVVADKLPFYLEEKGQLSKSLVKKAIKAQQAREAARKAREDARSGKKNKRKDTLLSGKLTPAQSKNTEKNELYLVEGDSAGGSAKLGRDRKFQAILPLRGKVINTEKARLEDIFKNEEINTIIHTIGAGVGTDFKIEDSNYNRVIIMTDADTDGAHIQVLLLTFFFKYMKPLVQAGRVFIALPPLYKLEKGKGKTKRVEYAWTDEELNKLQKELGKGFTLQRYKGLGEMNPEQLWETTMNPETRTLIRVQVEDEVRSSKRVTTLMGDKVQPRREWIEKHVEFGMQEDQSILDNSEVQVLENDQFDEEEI
Chain of S. aureus topoisomerase IV (P0C1U9 whole entry): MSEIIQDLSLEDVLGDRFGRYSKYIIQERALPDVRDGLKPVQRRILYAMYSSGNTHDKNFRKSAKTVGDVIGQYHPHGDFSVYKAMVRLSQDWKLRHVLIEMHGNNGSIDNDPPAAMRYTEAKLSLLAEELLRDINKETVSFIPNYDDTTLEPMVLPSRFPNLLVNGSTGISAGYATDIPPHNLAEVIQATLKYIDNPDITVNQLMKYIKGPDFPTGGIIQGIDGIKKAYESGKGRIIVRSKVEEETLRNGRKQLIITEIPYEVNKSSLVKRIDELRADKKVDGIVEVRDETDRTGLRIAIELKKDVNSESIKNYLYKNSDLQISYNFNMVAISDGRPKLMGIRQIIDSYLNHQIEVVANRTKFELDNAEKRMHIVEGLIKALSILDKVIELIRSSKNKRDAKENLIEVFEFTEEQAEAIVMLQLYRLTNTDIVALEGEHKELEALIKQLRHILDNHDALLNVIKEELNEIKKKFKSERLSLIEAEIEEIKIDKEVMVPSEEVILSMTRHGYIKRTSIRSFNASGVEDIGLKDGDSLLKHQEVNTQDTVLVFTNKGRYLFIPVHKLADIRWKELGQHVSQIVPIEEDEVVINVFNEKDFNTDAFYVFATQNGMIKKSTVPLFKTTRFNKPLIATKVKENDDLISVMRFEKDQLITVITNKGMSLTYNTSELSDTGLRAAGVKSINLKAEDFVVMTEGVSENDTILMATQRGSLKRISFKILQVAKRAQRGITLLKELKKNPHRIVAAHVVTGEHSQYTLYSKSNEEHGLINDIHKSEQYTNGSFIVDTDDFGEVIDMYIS

SMILES	MIC [1]	MIC [2]	MIC [3]	MIC [4]	MIC [5]	MIC [6]	MIC [7]	MIC [8]	MIC [9, 11]	MIC [9, 12]	MIC [9, 13]	IC50 [10]
CC(C)C12C=CC(C)(CC1)C1C(=O)N(Nc3nnnn3-c3ccc([N+](=O)[O-])cc3)C(=O)C12 (stereo not drawn) [Compound 8, 4-Isopropyl-7-methyl-2-((1-(4-nitrophenyl)-1H-tetrazol-5-yl)amino)-3a,4,7,7a-tetrahydro-1H-4,7-ethanoisoindole-1,3(2H)-dione]	> 256 µg/mL	16 µg/mL (≈ 36.6 µM)	16 µg/mL (≈ 36.6 µM)	16 µg/mL (≈ 36.6 µM)	> 256 µg/mL	> 256 µg/mL	16 µg/mL (≈ 36.6 µM)	> 256 µg/mL	2 to 32 µg/mL (≈ 4.57 to 73.1 µM)			
CC1=C(C)C2(C)CC1(C)C1C(=O)N(Nc3nnnn3-c3cccc(C(F)(F)F)c3)C(=O)C12 (stereo not drawn) [Compound 1, 4,5,6,7-Tetramethyl-2-((1-(3-(trifluoromethyl)phenyl)-1H-tetrazol-5-yl)amino)-3a,4,7,7a-tetrahydro-1H-4,7-methanoisoindole-1,3(2H)-dione]	1.6 µg/mL (≈ 3.58 µM)	0.8 µg/mL (≈ 1.79 µM)	0.8 µg/mL (≈ 1.79 µM)	0.8 µg/mL (≈ 1.79 µM)	3.2 µg/mL (≈ 7.17 µM)	3.2 µg/mL (≈ 7.17 µM)	0.8 µg/mL (≈ 1.79 µM)	3.2 µg/mL (≈ 7.17 µM)		0.8 to 3.2 µg/mL (≈ 1.79 to 7.17 µM)	0.8 µg/mL (≈ 1.79 µM)	142 µM
CC1=C(C)C2(C)CC1(C)C1C(=O)N(Nc3nnnn3-c3ccccc3)C(=O)C12 (stereo not drawn) [Compound 6, 4,5,6,7-Tetramethyl-2-((1-phenyl-1H-tetrazol-5-yl)amino)-3a,4,7,7a-tetrahydro-1H-4,7-methanoisoindole-1,3(2H)-dione]	16 µg/mL (≈ 42.3 µM)	4 µg/mL (≈ 10.6 µM)	4 µg/mL (≈ 10.6 µM)	4 µg/mL (≈ 10.6 µM)	8 µg/mL (≈ 21.1 µM)	16 µg/mL (≈ 42.3 µM)	4 µg/mL (≈ 10.6 µM)	8 µg/mL (≈ 21.1 µM)	2 to 32 µg/mL (≈ 5.28 to 84.6 µM)			
Cc1ccc(-n2nnnc2NN2C(=O)C3C(C2=O)C2(C(C)C)C=CC3(C)CC2)cc1 (stereo not drawn) [Compound 10, 4-Isopropyl-7-methyl-2-((1-(p-tolyl)-1H-tetrazol-5-yl)amino)-3a,4,7,7a-tetrahydro-1H-4,7-ethanoisoindole-1,3(2H)-dione]	32 µg/mL (≈ 78.7 µM)	16 µg/mL (≈ 39.4 µM)	8 µg/mL (≈ 19.7 µM)	16 µg/mL (≈ 39.4 µM)	32 µg/mL (≈ 78.7 µM)	32 µg/mL (≈ 78.7 µM)	16 µg/mL (≈ 39.4 µM)	32 µg/mL (≈ 78.7 µM)	2 to 32 µg/mL (≈ 4.92 to 78.7 µM)			
CC1=C(C)C2(C)CC1(C)C1C(=O)N(Nc3nnnn3-c3ccccc3Br)C(=O)C12 (stereo not drawn) [Compound 3, 2-((1-(2-Bromophenyl)-1H-tetrazol-5-yl)amino)-4,5,6,7-tetramethyl-3a,4,7,7a-tetrahydro-1H-4,7-methanoisoindole-1,3(2H)-dione]	1.6 µg/mL (≈ 3.5 µM)	0.8 µg/mL (≈ 1.75 µM)	0.8 µg/mL (≈ 1.75 µM)	0.8 µg/mL (≈ 1.75 µM)	1.6 µg/mL (≈ 3.5 µM)	3.2 µg/mL (≈ 7 µM)	0.8 µg/mL (≈ 1.75 µM)	1.6 µg/mL (≈ 3.5 µM)		0.8 to 3.2 µg/mL (≈ 1.75 to 7 µM)	0.8 µg/mL (≈ 1.75 µM)	134 µM
CC(C)C12C=CC(C)(CC1)C1C(=O)N(Nc3nnnn3-c3ccccc3Br)C(=O)C12 (stereo not drawn) [Compound 9, 2-((1-(2-Bromophenyl)-1H-tetrazol-5-yl)amino)-4-isopropyl-7-methyl-3a,4,7,7a-tetrahydro-1H-4,7-ethanoisoindole-1,3(2H)-dione]	16 µg/mL (≈ 33.9 µM)	4 µg/mL (≈ 8.49 µM)	2 µg/mL (≈ 4.24 µM)	4 µg/mL (≈ 8.49 µM)	8 µg/mL (≈ 17 µM)	16 µg/mL (≈ 33.9 µM)	4 µg/mL (≈ 8.49 µM)	8 µg/mL (≈ 17 µM)	2 to 32 µg/mL (≈ 4.24 to 67.9 µM)			
CC1=C(C)C2(C)CC1(C)C1C(=O)N(Nc3nnnn3-c3ccc([N+](=O)[O-])cc3)C(=O)C12 (stereo not drawn) [Compound 4, 4,5,6,7-Tetramethyl-2-((1-(4-nitrophenyl)-1H-tetrazol-5-yl)amino)-3a,4,7,7a-tetrahydro-1H-4,7-methanoisoindole-1,3(2H)-dione]	256 µg/mL (≈ 605 µM)	32 µg/mL (≈ 75.6 µM)	32 µg/mL (≈ 75.6 µM)	16 µg/mL (≈ 37.8 µM)	256 µg/mL (≈ 605 µM)	256 µg/mL (≈ 605 µM)	16 µg/mL (≈ 37.8 µM)	256 µg/mL (≈ 605 µM)	2 to 32 µg/mL (≈ 4.72 to 75.6 µM)			
CC1=C(C)C2(C)CC1(C)C1C(=O)N(Nc3nnnn3-c3ccccc3Cl)C(=O)C12 (stereo not drawn) [Compound 2, 2-((1-(2-Chlorophenyl)-1H-tetrazol-5-yl)amino)-4,5,6,7-tetramethyl-3a,4,7,7a-tetrahydro-1H-4,7-methanoisoindole-1,3(2H)-dione]	1.6 µg/mL (≈ 3.88 µM)	0.8 µg/mL (≈ 1.94 µM)	0.8 µg/mL (≈ 1.94 µM)	0.8 µg/mL (≈ 1.94 µM)	1.6 µg/mL (≈ 3.88 µM)	3.2 µg/mL (≈ 7.75 µM)	0.8 µg/mL (≈ 1.94 µM)	3.2 µg/mL (≈ 7.75 µM)		0.8 to 3.2 µg/mL (≈ 1.94 to 7.75 µM)	0.8 µg/mL (≈ 1.94 µM)	141 µM
